In patent publication US9302999B2, “Substituted triazoles as herbicides” (E. I. DU PONT DE NEMOURS AND COMPANY, priority 2012, dated 2016):

How the values were obtained:
Assay type in all cases: in vivo
[1] = test system: wheat (Triticum aestivum); experiment: Test A pre-/postemergence: wheat; conditions: 1000 g ai/ha
Outline: (§1)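 Compounds, formulated with surfactant in non-phytotoxic solvent, were applied as a directed soil spray preemergence and as postemergence sprays to 2–10 cm, one- to two-leaf seedlings grown in loam soil blended with sand; visual injury, 0–100, assessed ~10 days post-treatment against untreated controls.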

rice (Oryza sativa) = experiment: Test C flooded paddy test: rice; conditions: scale 0 to 100 (0 no effect, 100 complete control)
Outline: (§2)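 Plants at 2-leaf stage in pots flooded 3 cm above soil; compounds applied directly into the paddy water, depth maintained. Visual rating against controls after 13–15 days in greenhouse, scale 0 (no effect) to 100 (complete control).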

[2] = test system: morningglory (Ipomoea spp.); experiment: Test A pre-/postemergence: morningglory; conditions: 1000 g ai/ha
Outline: as §1

[3] = test system: foxtail, giant (giant foxtail, Setaria faberii); experiment: Test A pre-/postemergence: foxtail, giant; conditions: 1000 g ai/ha
Outline: as §1

[4] = test system: barnyardgrass (Echinochloa crus-galli); experiment: Test C flooded paddy test: barnyardgrass; conditions: scale 0 to 100 (0 no effect, 100 complete control)
Outline: as §2

[5] = test system: sedge, umbrella (small-flower umbrella sedge, Cyperus difformis); experiment: Test C flooded paddy test: sedge, umbrella; conditions: scale 0 to 100 (0 no effect, 100 complete control)
Outline: as §2

[6] = test system: pigweed (Amaranthus retroflexus); experiment: Test A pre-/postemergence: pigweed; conditions: 1000 g ai/ha
Outline: as §1

corn (Zea mays) = experiment: Test A pre-/postemergence: corn; conditions: 1000 g ai/ha
Outline: as §1

[7] = test system: ducksalad (Heteranthera limosa); experiment: Test C flooded paddy test: ducksalad; conditions: scale 0 to 100 (0 no effect, 100 complete control)
Outline: as §2

[8] = test system: crabgrass, large (large crabgrass, Digitaria sanguinalis); experiment: Test A pre-/postemergence: crabgrass, large; conditions: 1000 g ai/ha
Outline: as §1

[9] = test system: velvetleaf (Abutilon theophrasti); experiment: Test A pre-/postemergence: velvetleaf; conditions: 1000 g ai/ha
Outline: as §1

[10] = test system: barnyardgrass (Echinochloa crus-galli); experiment: Test A pre-/postemergence: barnyardgrass; conditions: 1000 g ai/ha
Outline: as §1

[11] = Postemergence, visual rating on 0 to 100 scale (0 no effect, 100 complete control), approximately ten days
[12] = Preemergence, 0 to 100 scale, 0 is no effect, 100 is complete control
[13] = Flood (flooded paddy test), 250 g ai/ha, visual rating after 13 to 15 days

Compound | Wheat plant response rating [1, 11] | Wheat plant response rating [1, 12] | Plant response rating, Rice (rice (Oryza sativa); [13]) | Plant response rating, Rice (rice (Oryza sativa); Flood, 62 g ai/ha) | Morningglory plant response rating [2, 11] | Morningglory plant response rating [2, 12] | Foxtail, Giant plant response rating [3, 11] | Foxtail, Giant plant response rating [3, 12] | Plant response rating, Barnyardgrass [4, 13] | Plant response rating, Barnyardgrass ([4]; Flood, 62 g ai/ha) | Plant response rating, Sedge, Umbrella [5, 13] | Plant response rating, Sedge, Umbrella ([5]; Flood, 62 g ai/ha) | Pigweed plant response rating [6, 11] | Pigweed plant response rating [6, 12] | Corn plant response rating (corn (Zea mays); [11]) | Corn plant response rating (corn (Zea mays); [12]) | Plant response rating, Ducksalad [7, 13] | Plant response rating, Ducksalad ([7]; Flood, 62 g ai/ha) | Crabgrass, Large plant response rating [8, 11] | Crabgrass, Large plant response rating [8, 12] | other results
CCc1nn(-c2ccc(C(F)(F)F)cc2)nc1Cn1cnc(C(F)(F)F)n1 [Compound 130] | 30 | 10 | 15 | 0 | 100 | 40 | 80 | 90 | 15 | 0 | 75 | 30 | 100 | 90 | 30 | 0 | 20 | 0 | 90 | 90 | Velvetleaf plant response rating [9, 11]: 100; Velvetleaf plant response rating [9, 12]: 20; Barnyardgrass plant response rating [10, 11]: 50; Barnyardgrass plant response rating [10, 12]: 50
CCc1nn(-c2ccc(C(F)(F)F)cc2)nc1Cn1nc(C(F)(F)F)cc1C [Compound 131] | 0 | 0 | 0 | 0 | 70 | 10 | 50 | 90 | 10 | 0 | 0 | 0 | 100 | 90 | 30 | 0 | 20 | 0 | 90 | 90 | Velvetleaf plant response rating [9, 11]: 40; Velvetleaf plant response rating [9, 12]: 0; Barnyardgrass plant response rating [10, 11]: 30; Barnyardgrass plant response rating [10, 12]: 20
Cc1nn(-c2ccc(C(F)(F)F)cc2)nc1Cn1cnc(C(F)(F)F)n1 [Compound 132] | 30 | 0 | 0 | 0 | 100 | 60 | 90 | 100 | 0 | 0 | 65 | 0 | 100 | 100 | 30 | 0 | 20 | 0 | 90 | 100 | Velvetleaf plant response rating [9, 11]: 90; Velvetleaf plant response rating [9, 12]: 60; Barnyardgrass plant response rating [10, 11]: 80; Barnyardgrass plant response rating [10, 12]: 90
